Measurements: ChEMBL document CHEMBL5143711, “Glenthmycins A-M: Macrocyclic Spirotetronate Polyketide Antibacterials from the Australian Pasture Plant-Derived Streptomyces sp. CMB-PB041” (J Nat Prod, 2022)

How the values were obtained:
Staphylococcus aureus [1] = test: Antibacterial activity against Staphylococcus aureus ATCC 25923 incubated for 16 to 24 hrs by broth microdilution based spectrophotometric analysis; format: functional, organism-based
Staphylococcus aureus [2] = test: Antibacterial activity against methicillin-resistant Staphylococcus aureus ATCC 43300 incubated for 16 to 24 hrs by broth microdilution based spectrophotometric analysis; format: functional, organism-based
Enterococcus faecalis = test: Antibacterial activity against Enterococcus faecalis incubated for 16 to 24 hrs by broth microdilution based spectrophotometric analysis; format: functional, organism-based
Staphylococcus aureus [3] = test: Antibacterial activity against methicillin-resistant Staphylococcus aureus ATCC 33591 incubated for 16 to 24 hrs by broth microdilution based spectrophotometric analysis; format: functional, organism-based
Enterococcus faecium = test: Antibacterial activity against vancomycin-resistant Enterococcus faecium incubated for 16 to 24 hrs by broth microdilution based spectrophotometric analysis; format: functional, organism-based
[4] = Cytotoxicity against human SW-620 cells and measured after 48 hrs by MTT assay; format: toxicity, cell-based
Escherichia coli = test: Antibacterial activity against Escherichia coli ATCC 11775 incubated for 16 to 24 hrs by broth microdilution based spectrophotometric analysis; format: functional, organism-based
[5] = Cytotoxicity against human NCI-H460 cells and measured after 48 hrs by MTT assay; format: toxicity, cell-based
Candida albicans = test: Antifungal activity against Candida albicans ATCC 10231 incubated for 16 to 24 hrs by broth microdilution based spectrophotometric analysis; format: functional, organism-based
[6] = test system: Mycobacterium tuberculosis; test: Antibacterial activity against Mycobacterium tuberculosis H37Ra ATCC 25177 incubated for 16 to 24 hrs by broth microdilution based spectrophotometric analysis; format: functional, organism-based

Compound	IC50 (Staphylococcus aureus [1]) [µM]	IC50 (Staphylococcus aureus [2]) [µM]	IC50 (Enterococcus faecalis) [µM]	IC50 (Staphylococcus aureus [3]) [µM]	IC50 (Enterococcus faecium) [µM]	IC50 at 48 h [4] [µM]	IC50 (Escherichia coli) [µM]	IC50 at 48 h [5] [µM]	IC50 (Candida albicans) [µM]	IC50 [6] [µM]
CCCCCCCCCCCC(=O)O[C@H]1CC[C@H](C)[C@@H]2[C@@H]1C=C(C)[C@H]1/C(C)=C/CC/C(C)=C/[C@]3(C)C=C(C)[C@H](C)C[C@]34OC(=O)C(=C4O)C(=O)[C@@]21C	> 30	> 30	> 30	> 30	> 30	–	–	–	–	–
CC1=C[C@H]2[C@@H]([C@@H](C)CC[C@@H]2O[C@@H]2O[C@H](C)[C@@H](O)[C@@H](O)[C@H]2O)[C@]2(C)C(=O)C3=C(O)[C@@]4(C[C@@H](C)C(C(=O)O)=C[C@@]4(C)/C=C(\C)CC/C=C(\C)[C@H]12)OC3=O	> 30	> 30	> 30	> 30	> 30	–	–	–	–	–
COc1cc(C)c(C(=O)O[C@H]2[C@@H](O)[C@@H](O)[C@H](O[C@H]3CC[C@H](C)[C@@H]4[C@@H]3C=C(C)[C@H]3/C(C)=C/CC/C(C)=C/[C@]5(C)C=C(C(=O)O)[C@H](C)C[C@]56OC(=O)C(=C6O)C(=O)[C@@]43C)O[C@@H]2C)c(O)c1	> 30	> 30	> 30	> 30	> 30	> 30	> 30	> 30	> 30	> 30
COc1cc(C)c(C(=O)O[C@H]2[C@H](O[C@H]3CC[C@H](C)[C@@H]4[C@@H]3C=C(C)[C@H]3/C(C)=C/CC/C(C)=C/[C@]5(C)C=C(C(=O)O)[C@H](C)C[C@]56OC(=O)C(=C6O)C(=O)[C@@]43C)O[C@H](C)[C@@H](O)[C@H]2O)c(O)c1	10	15.2	13	10.2	7.3	> 30	> 30	> 30	> 30	> 30
CC(=O)O[C@H]1CC[C@H](C)[C@@H]2[C@@H]1C=C(C)[C@H]1/C(C)=C/CC/C(C)=C/[C@@H]3C=C(C(=O)O)[C@H](C)C[C@]34OC(=O)C(=C4O)C(=O)[C@@]21C	> 30	> 30	> 30	> 30	> 30	–	–	–	–	–
CC(=O)O[C@H]1CC[C@H](C)[C@@H]2[C@@H]1C=C(C)[C@H]1/C(C)=C/CC/C(C)=C/[C@]3(C)C=C(C)[C@H](C)C[C@]34OC(=O)C(=C4O)C(=O)[C@@]21C	1.2	1.1	3.7	0.9	10	> 30	> 30	> 30	> 30	> 30
CCCCC(=O)O[C@H]1CC[C@H](C)[C@@H]2[C@@H]1C=C(C)[C@H]1/C(C)=C/CC/C(C)=C/[C@]3(C)C=C(C)[C@H](C)C[C@]34OC(=O)C(=C4O)C(=O)[C@@]21C	0.2	1.6	0.5	1.4	1.6	–	–	–	–	–
CC(=O)O[C@H]1CC[C@H](C)[C@@H]2[C@@H]1C=C(C)[C@H]1/C(C)=C/CC/C(C)=C/[C@]3(C)C=C(C(=O)O)[C@H](C)C[C@]34OC(=O)C(=C4O)C(=O)[C@@]21C	> 30	> 30	> 30	> 30	> 30	–	–	–	–	–
CC1=C[C@@]2(C)/C=C(\C)CC/C=C(\C)[C@@H]3C(C)=C[C@H]4[C@@H]([C@@H](C)CC[C@@H]4O)[C@]3(C)C(=O)C3=C(O)[C@@]2(C[C@H]1C)OC3=O	16.4	3.8	> 30	8.4	> 30	> 30	> 30	> 30	> 30	> 30
COc1cc(C)c(C(=O)O[C@H]2[C@@H](O)[C@H](O[C@H]3CC[C@H](C)[C@@H]4[C@@H]3C=C(C)[C@H]3/C(C)=C/CC/C(C)=C/[C@]5(C)C=C(C(=O)O)[C@H](C)C[C@]56OC(=O)C(=C6O)C(=O)[C@@]43C)O[C@H](C)[C@H]2O)c(O)c1	23.2	7.3	4	12.2	13.1	> 30	> 30	> 30	> 30	> 30
COc1cc(C)c(C(=O)N[C@@H]2[C@@H](C)O[C@@H](O[C@H]3CC[C@H](C)[C@@H]4[C@@H]3C=C(C)[C@H]3/C(C)=C/CC/C(C)=C/[C@]5(C)C=C(C(=O)O)[C@H](C)C[C@]56OC(=O)C(=C6O)C(=O)[C@@]43C)[C@H](O)[C@]2(C)O)c(O)c1	11.9	9.1	7.3	2.2	9.5	> 30	> 30	> 30	> 30	> 30
COc1cc(C)c(C(=O)O[C@H]2[C@H](O[C@H]3CC[C@H](C)[C@@H]4[C@@H]3C=C(C)[C@H]3/C(C)=C/CC/C(C)=C/[C@@H]5C=C(C(=O)O)[C@H](C)C[C@]56OC(=O)C(=C6O)C(=O)[C@@]43C)O[C@H](C)[C@@H](O)[C@H]2O)c(O)c1	18.4	16.3	2.7	8.6	2.9	> 30	> 30	> 30	> 30	> 30
COc1cc(C)c(C(=O)O[C@H]2[C@@H](O)[C@@H](O)[C@H](O[C@H]3CC[C@H](C)[C@@H]4[C@@H]3C=C(C)[C@H]3/C(C)=C/CC/C(C)=C/[C@]5(C)C=C(C(=O)O)[C@H](C)C[C@]56OC(=O)C(=C6O)C(=O)[C@@]43C)O[C@@H]2C)c(OC)c1	4.9	3.9	6.2	2.3	3.2	> 30	> 30	> 30	> 30	> 30
COc1cc(C)c(C(=O)N[C@@H]2[C@@H](C)O[C@@H](O[C@H]3CC[C@H](C)[C@@H]4[C@@H]3C=C(C)[C@H]3/C(C)=C/CC/C(C)=C/[C@@H]5C=C(C(=O)O)[C@H](C)C[C@]56OC(=O)C(=C6O)C(=O)[C@@]43C)[C@H](O)[C@]2(C)O)c(O)c1	6.4	4.4	5.7	1.9	5.2	> 30	> 30	> 30	> 30	> 30
COc1cc(C)c(C(=O)O[C@H]2[C@@H](O)[C@H](O[C@H]3CC[C@H](C)[C@@H]4[C@@H]3C=C(C)[C@H]3/C(C)=C/CC/C(C)=C/[C@@H]5C=C(C(=O)O)[C@H](C)C[C@]56OC(=O)C(=C6O)C(=O)[C@@]43C)O[C@H](C)[C@H]2O)c(O)c1	8.4	7.9	8.9	5.8	2.9	> 30	> 30	> 30	> 30	> 30
COc1cc(C)c(C(=O)O[C@H]2[C@@H](O)[C@@H](O)[C@H](O[C@H]3CC[C@H](C)[C@@H]4[C@@H]3C=C(C)[C@H]3/C(C)=C/CC/C(C)=C/[C@@H]5C=C(C(=O)O)[C@H](C)C[C@]56OC(=O)C(=C6O)C(=O)[C@@]43C)O[C@@H]2C)c(O)c1	15.3	6.3	3.1	8.3	5.4	> 30	> 30	> 30	> 30	> 30
CC1=C[C@H]2[C@@H]([C@@H](C)CC[C@@H]2O)[C@]2(C)C(=O)C3=C(O)[C@@]4(C[C@@H](C)C(C(=O)O)=C[C@H]4/C=C(\C)CC/C=C(\C)[C@H]12)OC3=O	> 30	> 30	> 30	> 30	> 30	–	–	–	–	–
CC1=C[C@H]2[C@@H]([C@@H](C)CC[C@@H]2O)[C@]2(C)C(=O)C3=C(O)[C@@]4(C[C@@H](C)C(C(=O)O)=C[C@@]4(C)/C=C(\C)CC/C=C(\C)[C@H]12)OC3=O	> 30	> 30	> 30	> 30	> 30	–	–	–	–	–
CC(=O)O[C@H]1CC[C@H](C)[C@@H]2[C@@H]1C=C(C)[C@H]1/C(C)=C/CC/C(C)=C/[C@@H]3C=C(C)[C@H](C)C[C@]34OC(=O)C(=C4O)C(=O)[C@@]21C	0.8	0.3	3	6.8	6.7	> 30	> 30	> 30	> 30	> 30
COc1cccc(OC)c1C(=O)N[C@@H]1C(=O)N2[C@@H]1SC(C)(C)[C@@H]2C(=O)O [METHICILLIN]	< 10	> 10	–	> 10	–	–	–	–	–	–
CN[C@H](CC(C)C)C(=O)N[C@H]1C(=O)N[C@@H](CC(N)=O)C(=O)N[C@H]2C(=O)N[C@H]3C(=O)N[C@H](C(=O)N[C@H](C(=O)O)c4cc(O)cc(O)c4-c4cc3ccc4O)[C@H](O)c3ccc(c(Cl)c3)Oc3cc2cc(c3O[C@@H]2O[C@H](CO)[C@@H](O)[C@H](O)[C@H]2O[C@H]2C[C@](C)(N)[C@H](O)[C@H](C)O2)Oc2ccc(cc2Cl)[C@H]1O [VANCOMYCIN]	–	–	< 10	–	> 10	–	–	–	–	–
